According to ChEMBL document CHEMBL1773059, “NMS-P937, a 4,5-dihydro-1H-pyrazolo[4,3-h]quinazoline derivative as potent and selective Polo-like kinase 1 inhibitor” (Bioorg Med Chem Lett, 2011):
pIC50: −log10 of the molar value. Values after ≈ are worked out from the molar mass of the structure shown. Active and inactive are the calls of the source. The rule behind the calls is not given here.

Columns and labels:
[1] = Solubility of compound at pH 7; assay type: physicochemical; conditions: buffer
[2] = target: Serine/threonine-protein kinase PLK2 (Homo sapiens, UniProt Q9NYY3); assay: Inhibition of PLK2 assessed as [33P]gamma-ATP incorporation into substrate after 60 mins by gamma counting
[3] = system: CAL-51; assay: Cell cycle arrest in human CAL51 cells at 0.1 to 1 uM after 24 hrs by flow cytometry; assay type: functional, cell-based
[4] = Apparent permeability of the compound by PAMPA assay; assay type: ADME
[5] = Intrinsic clearance in rat hepatocytes at 1 uM; assay type: ADME, cell-based, Liver, Hepatocyte
[6] = Solubility of compound in 10% Tween 80; assay type: physicochemical
[7] = target: Serine/threonine-protein kinase PLK1 (Homo sapiens, UniProt P53350); assay: Inhibition of PLK1 assessed as [33P]gamma-ATP incorporation into substrate after 60 mins by gamma counting
[8] = target: Serine/threonine-protein kinase PLK3 (Homo sapiens, UniProt Q9H4B4); assay: Inhibition of PLK3 assessed as [33P]gamma-ATP incorporation into substrate after 60 mins by gamma counting
[9] = Intrinsic clearance in human liver microsomes at 1 uM; assay type: ADME, Microsome
[10] = system: Caco-2; assay: Apparent permeability of the compound across human Caco2 cells; assay type: ADME, cell-based
[11] = system: A2780; assay: Antiproliferative activity against human A2780 cells
[12] = Half life in overnight fasted CD1 nu/nu mouse at 10 mg/kg, iv; assay type: ADME, organism-based; design: dose 10 mg/kg, route intravenous; conditions: in vivo
[13] = AUC (infinity) in overnight fasted CD1 nu/nu mouse at 10 mg/kg, po; assay type: ADME, organism-based; design: time infinity, dose 10 mg/kg, route oral; conditions: plasma
[14] = Cmax in overnight fasted CD1 nu/nu mouse at 10 mg/kg, po; assay type: ADME, organism-based; design: dose 10 mg/kg, route oral; conditions: in vivo
[15] = Clearance in overnight fasted CD1 nu/nu mouse at 10 mg/kg, iv; assay type: ADME, organism-based; design: dose 10 mg/kg, route intravenous; conditions: in vivo
[16] = AUC (infinity) in overnight fasted CD1 nu/nu mouse at 10 mg/kg, iv; assay type: ADME, organism-based; design: time infinity, dose 10 mg/kg, route intravenous; conditions: plasma
[17] = Volume of distribution at steady state in overnight fasted CD1 nu/nu mouse at 10 mg/kg, iv; assay type: ADME, organism-based; design: dose 10 mg/kg, route intravenous; conditions: in vivo, read-out: Vdss
[18] = Oral bioavailability in overnight fasted CD1 nu/nu mouse at 10 mg/kg; assay type: ADME, organism-based; conditions: in vivo
[19] = Half life in overnight fasted CD1 nu/nu mouse at 10 mg/kg, po; assay type: ADME, organism-based; design: dose 10 mg/kg, route oral; conditions: in vivo
[20] = system: Mus musculus; assay: Toxicity in CD1 nu/nu mouse xenografted with human HCT116 cells assessed as reversible body weight loss at 30 mg/kg, iv BID administered on days 1 to 2 in weekly scheduling for 3 cycles measured on day 30; assay type: organism-based, HCT-116; design: dose 30 mg/kg, route intravenous; conditions: in vivo
[21] = system: HCT-116; assay: Antitumor activity against human HCT116 cells xenografted in CD1 nu/nu mouse assessed as tumor growth inhibition at 90 mg/kg, po once daily administered on days 1 to 2 daily in weekly scheduling for 4 cycles measured on day 18; conditions: HCT-116, po, 432 h, read-out: TGI
[22] = system: Mus musculus; assay: Toxicity in CD1 nu/nu mouse xenografted with human HCT116 cells assessed as reversible body weight loss at 90 mg/kg, po once daily administered on days 1 to 2 in weekly scheduling for 4 cycles measured on day 15; conditions: in vivo

Chain of Serine/threonine-protein kinase PLK2 (Q9NYY3 whole entry): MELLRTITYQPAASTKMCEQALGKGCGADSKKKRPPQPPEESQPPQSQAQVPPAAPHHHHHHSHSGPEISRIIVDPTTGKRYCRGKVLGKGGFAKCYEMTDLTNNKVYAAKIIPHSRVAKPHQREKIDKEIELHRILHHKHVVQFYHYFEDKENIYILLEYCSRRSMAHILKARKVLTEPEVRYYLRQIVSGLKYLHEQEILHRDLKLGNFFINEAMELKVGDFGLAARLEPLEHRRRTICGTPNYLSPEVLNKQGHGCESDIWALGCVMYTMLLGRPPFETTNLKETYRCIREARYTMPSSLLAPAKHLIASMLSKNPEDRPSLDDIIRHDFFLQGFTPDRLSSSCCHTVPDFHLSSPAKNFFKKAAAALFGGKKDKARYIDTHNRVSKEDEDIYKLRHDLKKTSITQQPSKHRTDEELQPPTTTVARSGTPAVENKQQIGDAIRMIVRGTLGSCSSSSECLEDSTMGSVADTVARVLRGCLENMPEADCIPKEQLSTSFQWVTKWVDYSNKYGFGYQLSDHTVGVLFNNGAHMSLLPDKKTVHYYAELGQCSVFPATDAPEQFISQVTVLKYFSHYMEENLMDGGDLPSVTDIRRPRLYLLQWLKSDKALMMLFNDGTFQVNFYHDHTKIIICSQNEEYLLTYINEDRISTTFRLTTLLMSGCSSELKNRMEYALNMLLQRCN
Chain of Serine/threonine-protein kinase PLK3 (Q9H4B4 whole entry): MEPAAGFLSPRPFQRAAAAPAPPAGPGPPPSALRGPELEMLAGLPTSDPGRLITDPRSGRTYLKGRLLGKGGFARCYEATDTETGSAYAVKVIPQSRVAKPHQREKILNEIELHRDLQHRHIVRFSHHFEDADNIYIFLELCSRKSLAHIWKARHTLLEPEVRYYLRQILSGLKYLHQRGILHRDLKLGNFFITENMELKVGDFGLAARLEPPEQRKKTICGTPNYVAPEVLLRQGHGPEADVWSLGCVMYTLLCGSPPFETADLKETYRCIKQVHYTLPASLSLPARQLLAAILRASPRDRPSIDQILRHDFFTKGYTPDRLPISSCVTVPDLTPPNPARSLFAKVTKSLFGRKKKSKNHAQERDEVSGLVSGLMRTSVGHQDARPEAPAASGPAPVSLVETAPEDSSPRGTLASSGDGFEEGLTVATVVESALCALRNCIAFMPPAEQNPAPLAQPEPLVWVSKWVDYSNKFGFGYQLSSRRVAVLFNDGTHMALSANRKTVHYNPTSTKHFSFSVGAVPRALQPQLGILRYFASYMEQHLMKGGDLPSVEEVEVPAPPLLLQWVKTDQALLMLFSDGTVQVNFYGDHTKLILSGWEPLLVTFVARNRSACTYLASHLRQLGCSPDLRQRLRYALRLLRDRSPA
Chain of Serine/threonine-protein kinase PLK1 (P53350 whole entry): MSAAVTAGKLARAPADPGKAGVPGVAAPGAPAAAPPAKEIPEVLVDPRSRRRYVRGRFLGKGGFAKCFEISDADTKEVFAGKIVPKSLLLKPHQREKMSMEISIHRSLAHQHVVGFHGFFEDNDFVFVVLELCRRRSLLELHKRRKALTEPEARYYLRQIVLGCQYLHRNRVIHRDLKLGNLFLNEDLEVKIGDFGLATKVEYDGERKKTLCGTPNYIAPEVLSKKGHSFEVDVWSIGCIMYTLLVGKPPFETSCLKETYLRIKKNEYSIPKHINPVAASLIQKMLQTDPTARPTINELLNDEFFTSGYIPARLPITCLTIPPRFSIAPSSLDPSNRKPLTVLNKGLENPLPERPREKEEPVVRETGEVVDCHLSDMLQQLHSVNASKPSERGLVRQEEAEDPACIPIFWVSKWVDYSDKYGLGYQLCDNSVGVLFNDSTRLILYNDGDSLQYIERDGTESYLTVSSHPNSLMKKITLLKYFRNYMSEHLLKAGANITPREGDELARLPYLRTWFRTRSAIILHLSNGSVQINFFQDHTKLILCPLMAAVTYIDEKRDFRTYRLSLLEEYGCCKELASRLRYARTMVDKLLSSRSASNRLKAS

SMILES	solubility [1] [µM]	pIC50 [2]	pIC50 [7]	pIC50 [8]	pIC50 [11]	also measured
CN1CCN(c2ccc(OC(F)(F)F)c(Nc3ncc4c(n3)-c3c(c(C(N)=O)nn3CCOC3CCCCO3)CC4)c2)CC1 (stereo not given)	35 (≈ 21.6 µg/mL)	< 5.00	–	–	–	–
CN1CCN(c2ccc(OC(F)(F)F)c(Nc3ncc4c(n3)-c3c(c(C(N)=O)nn3CCO)CC4)c2)CC1	–	–	–	–	–	Activity [3]: Active
CN1CCC(c2ccc(OC(F)(F)F)c(Nc3ncc4c(n3)-c3c(c(C(N)=O)nn3C)CC4)c2)CC1	203 (≈ 102 µg/mL)	< 5.00	8.22	< 5.00	–	Papp [4]: 36.8 ×10⁻⁶ cm/s; CLint scaled at 1 µM [5]: 603 mL/min/kg; solubility [6]: 3800 µg/mL (≈ 7.58 mM); CLint scaled at 1 µM [9]: 15.9 mL/min/kg; Papp [10]: permeable
CN1CCN(c2ccc(OC(F)(F)F)c(Nc3ncc4c(n3)-c3c(c(C(N)=O)nn3C)CC4)c2)[C@H](CO)C1	166 (≈ 88.4 µg/mL)	5.83	–	–	5.79	–
CCN(CC)CCN(C)c1ccc(OC(F)(F)F)c(Nc2ncc3c(n2)-c2c(c(C(N)=O)nn2C)CC3)c1	162 (≈ 86.3 µg/mL)	< 5.00	7.22	< 5.00	5.94	–
CN1CCN(c2ccc(OC(F)(F)F)c(Nc3ncc4c(n3)-c3c(c(C(N)=O)nn3CCN)CC4)c2)CC1	202 (≈ 107 µg/mL)	< 5.00	7.48	< 5.00	5.88	Papp [4]: 5 ×10⁻⁶ cm/s
CN1CCC(C(=O)Nc2ccc(OC(F)(F)F)c(Nc3ncc4c(n3)-c3c(c(C(N)=O)nn3C)CC4)c2)CC1	33 (≈ 18 µg/mL)	5.82	–	–	5.87	–
CN1CCN(c2ccc(OC(F)(F)F)c(Nc3ncc4c(n3)-c3c(c(C(N)=O)nn3CCO)CC4)c2)CC1.Cl	–	–	–	–	–	half-life [12]: 0.89 h; AUC(0-inf) [13]: 2.04 µM·h; Cmax [14]: 640 nM; clearance [15]: 39.3 mL/min/kg; AUC(0-inf) [16]: 8.57 µM·h; Vd [17]: 1.71 L/kg; bioavailability [18]: 24%; half-life [19]: 1.6 h
CN(C)CCCn1nc(C(N)=O)c2c1-c1nc(Nc3cc(N4CCN(C)CC4)ccc3OC(F)(F)F)ncc1CC2	200 (≈ 115 µg/mL)	< 5.00	6.55	< 5.00	5.60	–
CN1CC=C(c2ccc(OC(F)(F)F)c(Nc3ncc4c(n3)-c3c(c(C(N)=O)nn3C)CC4)c2)CC1	148 (≈ 73.9 µg/mL)	5.65	–	–	7.47	Papp [4]: 46.4 ×10⁻⁶ cm/s; CLint scaled at 1 µM [5]: 638 mL/min/kg; solubility [6]: 3700 µg/mL (≈ 7.41 mM); CLint scaled at 1 µM [9]: 24.5 mL/min/kg; Papp [10]: permeable
CN1CCN(CCCNc2ccc(OC(F)(F)F)c(Nc3ncc4c(n3)-c3c(c(C(N)=O)nn3C)CC4)c2)CC1	186 (≈ 104 µg/mL)	5.87	–	–	5.79	–
Cn1nc(C(N)=O)c2c1-c1nc(Nc3cc(NC(=O)[C@@H]4CCCN4)ccc3OC(F)(F)F)ncc1CC2	79 (≈ 40.8 µg/mL)	5.84	–	–	6.46	–
CN1CCN(c2ccc(OC(F)(F)F)c(Nc3ncc4c(n3)-c3c(c(C(N)=O)nn3C)CC4)c2)[C@@H](CO)C1	121 (≈ 64.4 µg/mL)	< 5.00	–	–	6.22	–
CN1CCN(c2ccc(OC(F)(F)F)c(Nc3ncc4c(n3)-c3c(c(C(N)=O)nn3CCCN)CC4)c2)CC1	186 (≈ 101 µg/mL)	< 5.00	7.28	< 5.00	6.07	Papp [4]: 4 ×10⁻⁶ cm/s
CN1CCN(c2ccc(OC(F)(F)F)c(Nc3ncc4c(n3)-c3c(c(C(N)=O)nn3C)CC4)c2)CC1	–	–	–	–	–	CLint scaled at 1 µM [5]: 600 mL/min/kg; Activity [20]: 14%; inhibition in vivo at 90 mg/kg [21]: 59%; Activity [22]: 14%; Papp [10]: permeable
